Measurements reported in the NIST ThermoML archive (doi:10.1016/j.jct.2018.10.006).

Assay: molar heat capacity at constant pressure
Details: 101.33 kPa, Crystal 2

O=P([O-])([O-])[O-].[Cs+].[Ni+2] [cesium nickel monophosphate]
Details	molar heat capacity at constant pressure [J/K/mol]
5 K, Small (less than 1 g) adiabatic calorimetry	0.898
6 K, Small (less than 1 g) adiabatic calorimetry	1.272
6.21 K, Small (less than 1 g) adiabatic calorimetry	1.255
6.51 K, Small (less than 1 g) adiabatic calorimetry	1.413
6.82 K, Small (less than 1 g) adiabatic calorimetry	1.605
7 K, Small (less than 1 g) adiabatic calorimetry	1.721
7.13 K, Small (less than 1 g) adiabatic calorimetry	1.788
7.51 K, Small (less than 1 g) adiabatic calorimetry	1.987
7.97 K, Small (less than 1 g) adiabatic calorimetry	2.195
8 K, Small (less than 1 g) adiabatic calorimetry	2.203
8.43 K, Small (less than 1 g) adiabatic calorimetry	2.444
8.87 K, Small (less than 1 g) adiabatic calorimetry	2.627
9 K, Small (less than 1 g) adiabatic calorimetry	2.719
9.32 K, Small (less than 1 g) adiabatic calorimetry	2.902
9.77 K, Small (less than 1 g) adiabatic calorimetry	3.176
10 K, Small (less than 1 g) adiabatic calorimetry	3.351
10.24 K, Small (less than 1 g) adiabatic calorimetry	3.492
10.72 K, Small (less than 1 g) adiabatic calorimetry	3.908
11.23 K, Small (less than 1 g) adiabatic calorimetry	4.299
11.76 K, Small (less than 1 g) adiabatic calorimetry	4.756
12.55 K, Small (less than 1 g) adiabatic calorimetry	5.496
13.09 K, Small (less than 1 g) adiabatic calorimetry	6.119
13.82 K, Small (less than 1 g) adiabatic calorimetry	6.826
14.55 K, Small (less than 1 g) adiabatic calorimetry	7.566
15 K, Small (less than 1 g) adiabatic calorimetry	8.032
15.28 K, Small (less than 1 g) adiabatic calorimetry	8.431
16.02 K, Small (less than 1 g) adiabatic calorimetry	9.146
16.77 K, Small (less than 1 g) adiabatic calorimetry	9.844
17.78 K, Small (less than 1 g) adiabatic calorimetry	10.73
18.33 K, Small (less than 1 g) adiabatic calorimetry	11.31
19.12 K, Small (less than 1 g) adiabatic calorimetry	12.07
19.94 K, Small (less than 1 g) adiabatic calorimetry	13.03
20 K, Small (less than 1 g) adiabatic calorimetry	13.06
21.96 K, Small (less than 1 g) adiabatic calorimetry	15.22
24.23 K, Small (less than 1 g) adiabatic calorimetry	17.56
25 K, Small (less than 1 g) adiabatic calorimetry	18.54
26.66 K, Small (less than 1 g) adiabatic calorimetry	20.67
29.06 K, Small (less than 1 g) adiabatic calorimetry	23.5
30 K, Small (less than 1 g) adiabatic calorimetry	24.62
31.53 K, Small (less than 1 g) adiabatic calorimetry	26.28
34.01 K, Small (less than 1 g) adiabatic calorimetry	28.63
35 K, Small (less than 1 g) adiabatic calorimetry	29.56
36.46 K, Small (less than 1 g) adiabatic calorimetry	30.81
38.9 K, Small (less than 1 g) adiabatic calorimetry	33.32
40 K, Small (less than 1 g) adiabatic calorimetry	34.26
41.34 K, Small (less than 1 g) adiabatic calorimetry	35.6
43.79 K, Small (less than 1 g) adiabatic calorimetry	38.06
45 K, Small (less than 1 g) adiabatic calorimetry	39.07
46.25 K, Small (less than 1 g) adiabatic calorimetry	40.1
48.71 K, Small (less than 1 g) adiabatic calorimetry	42.56
50 K, Small (less than 1 g) adiabatic calorimetry	43.9
51.87 K, Small (less than 1 g) adiabatic calorimetry	45.56
53.99 K, Small (less than 1 g) adiabatic calorimetry	47.57
56.52 K, Small (less than 1 g) adiabatic calorimetry	50.12
58.51 K, Small (less than 1 g) adiabatic calorimetry	51.87
60 K, Small (less than 1 g) adiabatic calorimetry	52.93
61.71 K, Small (less than 1 g) adiabatic calorimetry	54.33
63.47 K, Small (less than 1 g) adiabatic calorimetry	55.42
67.49 K, Small (less than 1 g) adiabatic calorimetry	58.66
68.37 K, Small (less than 1 g) adiabatic calorimetry	59.49
70 K, Small (less than 1 g) adiabatic calorimetry	60.41
70.84 K, Small (less than 1 g) adiabatic calorimetry	61.18
73.34 K, Small (less than 1 g) adiabatic calorimetry	62.62
75.82 K, Small (less than 1 g) adiabatic calorimetry	64.02
78.29 K, Small (less than 1 g) adiabatic calorimetry	65.34
80 K, Small (less than 1 g) adiabatic calorimetry	66.38
80.75 K, Small (less than 1 g) adiabatic calorimetry	66.68
81.73 K, Small (less than 1 g) adiabatic calorimetry	67.23
83.21 K, Small (less than 1 g) adiabatic calorimetry	67.91
85.55 K, Small (less than 1 g) adiabatic calorimetry	69.26
85.67 K, Small (less than 1 g) adiabatic calorimetry	69.26
88.13 K, Small (less than 1 g) adiabatic calorimetry	70.96
88.91 K, Small (less than 1 g) adiabatic calorimetry	71.04
90 K, Small (less than 1 g) adiabatic calorimetry	71.65
92.27 K, Small (less than 1 g) adiabatic calorimetry	73.08
95.63 K, Small (less than 1 g) adiabatic calorimetry	74.82
98.99 K, Small (less than 1 g) adiabatic calorimetry	76.75
100 K, Small (less than 1 g) adiabatic calorimetry	77.58
102.34 K, Small (less than 1 g) adiabatic calorimetry	78.95
105.7 K, Small (less than 1 g) adiabatic calorimetry	80.67
109.06 K, Small (less than 1 g) adiabatic calorimetry	82.69
110 K, Small (less than 1 g) adiabatic calorimetry	82.93
112.41 K, Small (less than 1 g) adiabatic calorimetry	84.06
115.76 K, Small (less than 1 g) adiabatic calorimetry	85.56
119.1 K, Small (less than 1 g) adiabatic calorimetry	86.8
120 K, Small (less than 1 g) adiabatic calorimetry	87.3
122.44 K, Small (less than 1 g) adiabatic calorimetry	88.22
125.78 K, Small (less than 1 g) adiabatic calorimetry	89.96
129.12 K, Small (less than 1 g) adiabatic calorimetry	91.04
130 K, Small (less than 1 g) adiabatic calorimetry	91.38
132.46 K, Small (less than 1 g) adiabatic calorimetry	92.37
135.8 K, Small (less than 1 g) adiabatic calorimetry	93.29
139.13 K, Small (less than 1 g) adiabatic calorimetry	94.95
140 K, Small (less than 1 g) adiabatic calorimetry	95.37
142.46 K, Small (less than 1 g) adiabatic calorimetry	96.61
145.78 K, Small (less than 1 g) adiabatic calorimetry	97.86
149.1 K, Small (less than 1 g) adiabatic calorimetry	99.03
150 K, Small (less than 1 g) adiabatic calorimetry	99.52
152.42 K, Small (less than 1 g) adiabatic calorimetry	100.44
155.74 K, Small (less than 1 g) adiabatic calorimetry	101.69
159.04 K, Small (less than 1 g) adiabatic calorimetry	103.27
160 K, Small (less than 1 g) adiabatic calorimetry	103.68
162.35 K, Small (less than 1 g) adiabatic calorimetry	104.76
165.65 K, Small (less than 1 g) adiabatic calorimetry	106.01
168.95 K, Small (less than 1 g) adiabatic calorimetry	107.84
170 K, Small (less than 1 g) adiabatic calorimetry	107.84
172.25 K, Small (less than 1 g) adiabatic calorimetry	108.75
175.54 K, Small (less than 1 g) adiabatic calorimetry	109.83
178.83 K, Small (less than 1 g) adiabatic calorimetry	111.5
180 K, Small (less than 1 g) adiabatic calorimetry	111.83
182.12 K, Small (less than 1 g) adiabatic calorimetry	112.83
185.4 K, Small (less than 1 g) adiabatic calorimetry	113.82
188.67 K, Small (less than 1 g) adiabatic calorimetry	115.24
190 K, Small (less than 1 g) adiabatic calorimetry	115.4
191.94 K, Small (less than 1 g) adiabatic calorimetry	116.32
195.21 K, Small (less than 1 g) adiabatic calorimetry	116.98
198.48 K, Small (less than 1 g) adiabatic calorimetry	118.07
200 K, Small (less than 1 g) adiabatic calorimetry	118.73
201.74 K, Small (less than 1 g) adiabatic calorimetry	119.56
205 K, Small (less than 1 g) adiabatic calorimetry	120.14
208.27 K, Small (less than 1 g) adiabatic calorimetry	121.06
210 K, Small (less than 1 g) adiabatic calorimetry	121.64
211.53 K, Small (less than 1 g) adiabatic calorimetry	122.14
214.79 K, Small (less than 1 g) adiabatic calorimetry	122.56
218.05 K, Small (less than 1 g) adiabatic calorimetry	123.64
220 K, Small (less than 1 g) adiabatic calorimetry	124.38
221.32 K, Small (less than 1 g) adiabatic calorimetry	124.22
224.58 K, Small (less than 1 g) adiabatic calorimetry	125.63
227.84 K, Small (less than 1 g) adiabatic calorimetry	126.38
230 K, Small (less than 1 g) adiabatic calorimetry	126.88
231.11 K, Small (less than 1 g) adiabatic calorimetry	127.13
234.38 K, Small (less than 1 g) adiabatic calorimetry	128.21
237.64 K, Small (less than 1 g) adiabatic calorimetry	129.12
240 K, Small (less than 1 g) adiabatic calorimetry	129.37
240.88 K, Small (less than 1 g) adiabatic calorimetry	129.62
244.15 K, Small (less than 1 g) adiabatic calorimetry	130.7
247.41 K, Small (less than 1 g) adiabatic calorimetry	131.53
250 K, Small (less than 1 g) adiabatic calorimetry	132.03
250.68 K, Small (less than 1 g) adiabatic calorimetry	132.28
253.95 K, Small (less than 1 g) adiabatic calorimetry	133.03
257.21 K, Small (less than 1 g) adiabatic calorimetry	133.7
260 K, Small (less than 1 g) adiabatic calorimetry	134.94
260.47 K, Small (less than 1 g) adiabatic calorimetry	135.11
263.74 K, Small (less than 1 g) adiabatic calorimetry	135.94
266.99 K, Small (less than 1 g) adiabatic calorimetry	137.19
270 K, Small (less than 1 g) adiabatic calorimetry	138.19
270.25 K, Small (less than 1 g) adiabatic calorimetry	138.69
273.15 K, Small (less than 1 g) adiabatic calorimetry	139.27
273.51 K, Small (less than 1 g) adiabatic calorimetry	139.52
276.77 K, Small (less than 1 g) adiabatic calorimetry	140.43
280 K, Small (less than 1 g) adiabatic calorimetry	141.68
280.02 K, Small (less than 1 g) adiabatic calorimetry	141.6
283.26 K, Small (less than 1 g) adiabatic calorimetry	142.68
286.51 K, Small (less than 1 g) adiabatic calorimetry	143.84
289.74 K, Small (less than 1 g) adiabatic calorimetry	145
290 K, Small (less than 1 g) adiabatic calorimetry	145.42
292.94 K, Small (less than 1 g) adiabatic calorimetry	146.5
296.16 K, Small (less than 1 g) adiabatic calorimetry	147.25
298.15 K, Small (less than 1 g) adiabatic calorimetry	148.41
299.38 K, Small (less than 1 g) adiabatic calorimetry	148.58
300 K, Small (less than 1 g) adiabatic calorimetry	149.08
302.59 K, Small (less than 1 g) adiabatic calorimetry	150.41
305.8 K, Small (less than 1 g) adiabatic calorimetry	151.41
309.01 K, Small (less than 1 g) adiabatic calorimetry	152.57
310 K, Small (less than 1 g) adiabatic calorimetry	152.65
312.23 K, Small (less than 1 g) adiabatic calorimetry	153.82
315.44 K, Small (less than 1 g) adiabatic calorimetry	154.82
318.66 K, Small (less than 1 g) adiabatic calorimetry	155.48
320 K, Small (less than 1 g) adiabatic calorimetry	155.9
320.8 K, DSC	155.48
321.8 K, DSC	156.31
321.9 K, Small (less than 1 g) adiabatic calorimetry	156.23
322.8 K, DSC	156.31
323.8 K, DSC	156.31
324.8 K, DSC	157.14
325.15 K, Small (less than 1 g) adiabatic calorimetry	157.39
325.8 K, DSC	157.14
326.8 K, DSC	157.97
327.8 K, DSC	157.97
328.41 K, Small (less than 1 g) adiabatic calorimetry	158.22
328.8 K, DSC	158.81
329.8 K, DSC	158.81
330 K, Small (less than 1 g) adiabatic calorimetry	158.89
330.8 K, DSC	159.64
331.69 K, Small (less than 1 g) adiabatic calorimetry	159.39
331.8 K, DSC	159.64
332.8 K, DSC	159.64
333.8 K, DSC	160.47
334.8 K, DSC	160.47
334.97 K, Small (less than 1 g) adiabatic calorimetry	160.3
335.8 K, DSC	161.3
336.8 K, DSC	161.3
337.8 K, DSC	161.3
338.28 K, Small (less than 1 g) adiabatic calorimetry	161.22
338.8 K, DSC	162.13
339.8 K, DSC	162.13
340 K, Small (less than 1 g) adiabatic calorimetry	161.97
340.8 K, DSC	162.13
341.58 K, Small (less than 1 g) adiabatic calorimetry	162.8
341.8 K, DSC	162.96
342.8 K, DSC	162.96
343.8 K, DSC	162.96
